Source: publication PMC3034309 (European journal of pharmacology, 2011)

How the values were obtained:
[1] = molecular target: human cannabinoid CB1 receptors (Homo sapiens, UniProt P21554); test: Inhibition of forskolin-stimulated cyclic AMP production in CHO cells; assay type: cell-based; settings: read-out: Emax, inhibition of forskolin-induced stimulation of cyclic AMP
ICR mice [2] = test: Suppression of spontaneous activity; settings: i.v.; for ED50 SA (suppression of spontaneous activity): 95% confidence limits in parentheses
ICR mice [3] = test: Rectal temperature; settings: i.v., 95% confidence limits in parentheses
cannabinoid CB1 receptor [4] = molecular target: T1, cannabinoid CB1 receptor (Rattus norvegicus, UniProt P20272); test: [3H]CP55,940 binding, cannabinoid CB1 receptor, rat cerebellar membranes; settings: read-out: Ki (nM) CB1, 1 nM [3H]CP55,940, mean ± S.E.M.
ICR mice [5] = test: Tail flick antinociception; settings: for ED50 TF (tail flick antinociception): mice, i.v., 95% confidence limits in parentheses
[6] = molecular target: mouse cannabinoid CB2 receptors (Mus musculus, UniProt P47936); test: [3H]CP55,940 binding, cannabinoid CB2 receptor, CB2-CHO cell membranes; settings: for better affinity for cannabinoid CB2 receptors than for CB1: ratio of CB1 to CB2 affinity; for Ki: read-out: Ki (nM) CB2, CB2-CHO cell membranes, 1 nM [3H]CP55,940, mean ± S.E.M.
ICR mice [7] = test: Mouse in vivo screening test battery as a whole, agonist tests
ICR mice [8] = test: Mouse feeding experiment; assay type: in vivo; settings: mice food deprived for 24 hr, injected i.p. 30 min before 1 h session
C57/Bl6J mice = test: Δ9-tetrahydrocannabinol drug discrimination in mice; assay type: in vivo, mouse; settings: mice trained to discriminate 5.6 mg/kg Δ9-tetrahydrocannabinol from vehicle, s.c.
cannabinoid CB1 receptor [9] = molecular target: T1, cannabinoid CB1 receptor; test: Agonist-stimulated [35S]GTPγS binding in rat cerebellar membranes; assay type: biochemical
ICR mice [10] = test: Antagonist tests in the mouse in vivo test battery
[11] = system: mouse isolated vas deferens; test: Mouse vas deferens procedure; settings: for dextral shift of WIN 55,212-2 log concentration response curve: 95% confidence limits in parentheses; for mean change in twitch height: compound alone
ICR mice [12] = test: Locomotor trials associated with the feeding experiment; assay type: in vivo, mouse; settings: 10 and 30 mg/kg doses, i.p., 30 min before 10-min test

Sequence of mouse cannabinoid CB2 receptors (P47936 whole entry): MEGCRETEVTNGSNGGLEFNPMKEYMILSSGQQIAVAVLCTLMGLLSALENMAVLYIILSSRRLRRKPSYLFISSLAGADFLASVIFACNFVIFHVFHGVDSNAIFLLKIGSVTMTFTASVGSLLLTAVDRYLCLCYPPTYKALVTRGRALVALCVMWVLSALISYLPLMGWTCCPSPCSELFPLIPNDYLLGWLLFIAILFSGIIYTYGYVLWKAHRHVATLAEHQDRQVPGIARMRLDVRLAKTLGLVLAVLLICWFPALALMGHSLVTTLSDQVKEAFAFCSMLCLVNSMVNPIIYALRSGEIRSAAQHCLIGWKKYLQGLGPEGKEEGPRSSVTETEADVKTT
T1 sequence (P20272 whole entry): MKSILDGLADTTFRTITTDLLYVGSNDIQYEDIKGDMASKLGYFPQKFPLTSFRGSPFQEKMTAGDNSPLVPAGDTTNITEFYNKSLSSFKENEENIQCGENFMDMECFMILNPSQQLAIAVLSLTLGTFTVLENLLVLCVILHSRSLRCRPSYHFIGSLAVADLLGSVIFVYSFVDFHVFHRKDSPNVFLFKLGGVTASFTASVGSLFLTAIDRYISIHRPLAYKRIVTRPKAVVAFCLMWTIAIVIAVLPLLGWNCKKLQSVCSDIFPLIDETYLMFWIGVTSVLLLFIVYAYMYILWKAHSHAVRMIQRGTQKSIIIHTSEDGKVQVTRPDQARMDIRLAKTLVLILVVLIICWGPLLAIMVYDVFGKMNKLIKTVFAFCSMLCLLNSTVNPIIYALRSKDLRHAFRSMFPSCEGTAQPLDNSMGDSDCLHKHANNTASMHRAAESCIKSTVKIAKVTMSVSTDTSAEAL
Sequence of human cannabinoid CB1 receptors (P21554 whole entry): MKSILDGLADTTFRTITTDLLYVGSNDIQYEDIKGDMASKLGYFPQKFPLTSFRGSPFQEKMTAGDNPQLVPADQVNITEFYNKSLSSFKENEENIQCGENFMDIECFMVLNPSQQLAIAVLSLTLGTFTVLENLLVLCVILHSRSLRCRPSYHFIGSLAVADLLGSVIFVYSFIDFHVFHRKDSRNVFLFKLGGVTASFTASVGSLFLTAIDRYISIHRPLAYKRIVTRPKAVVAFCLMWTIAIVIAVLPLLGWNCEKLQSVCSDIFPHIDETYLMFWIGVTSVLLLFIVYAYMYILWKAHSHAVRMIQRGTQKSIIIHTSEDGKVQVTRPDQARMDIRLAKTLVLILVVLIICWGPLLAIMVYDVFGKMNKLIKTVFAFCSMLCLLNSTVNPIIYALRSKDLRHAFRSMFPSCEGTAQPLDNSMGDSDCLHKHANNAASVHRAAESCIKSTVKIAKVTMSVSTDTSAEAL

CCCCCCC(C)(C)c1ccc([C@@H]2C[C@H](O)CC[C@H]2CCCO)c(O)c1 [CP55,940, (−)-cis-3-[2-hydroxy-4(1,1-dimethyl-heptyl)phenyl]-trans-4-(3-hydroxy-propyl)cyclohexanol]
Emax [1]: 74.4%

CCS(=O)(=O)NCCCC#CCc1cc(O)c2c(c1)OC(C)(C)[C@@H]1CC=C(C)C[C@@H]21 [O-1991]
ED50 SA (suppression of spontaneous activity) (ICR mice [2]): 2 (1-3) mg/kg | ED50 RT (rectal temperature) (ICR mice [3]): 0.8 (0.4-1.6) mg/kg | Ki (cannabinoid CB1 receptor [4]): 30 ± 13 nM | ED50 TF (tail flick antinociception) (ICR mice [5]): 0.9 (0.6-1.4) mg/kg | better affinity for cannabinoid CB2 receptors than for CB1 [6]: 21 fold | Ki [6]: 1.4 ± 0.2 nM

CCCCS(=O)(=O)NCCCC#CCc1cc(O)c2c(c1)OC(C)(C)C1CC=C(C)CC21 (centres unmarked) [O-1993]
ED50 SA (suppression of spontaneous activity) (ICR mice [2]): 8 (3-16) mg/kg | ED50 RT (rectal temperature) (ICR mice [3]): 12 (9-15) mg/kg | Ki (cannabinoid CB1 receptor [4]): 70 ± 10 nM | decrease of in vivo potencies as compared to O-1991 (ICR mice [7]; across the three in vivo tests (SA, TF, RT)): 4- to 14 fold | ED50 TF (tail flick antinociception) (ICR mice [5]): 14 (7-27) mg/kg | Ki [6]: 86 ± 7 nM

CC1=CC[C@@H]2[C@@H](C1)c1c(O)cc(CC#CCCCNS(C)(=O)=O)cc1OC2(C)C [O-2050]
SA: percent effect at the highest dose (ICR mice [2]; 30 mg/kg (highest dose)): 69% @ 30 | food intake (ICR mice [8]): significant and dose-dependent decreases in food intake | Δ9-tetrahydrocannabinol-like discriminative stimulus effects (C57/Bl6J mice): produced discriminative stimulus effects that were similar to those of Δ^9-tetrahydrocannabinol | Ki (cannabinoid CB1 receptor [4]): 2.5 ± 0.4 nM | maximum stimulation of [35S]GTPγS binding (cannabinoid CB1 receptor [9]; compound alone, rat cerebellar membranes): 11 ± 3% | stimulation by CP 55,940 that was not blocked (cannabinoid CB1 receptor [9]; in presence of 1000 nM CP55,940): 11 ± 6% | activity in the battery of three in vivo tests (ICR mice [7]; mice, i.v., up to 30 mg/kg): not active in any of the three in vivo tests | increase in antinociception as compared to vehicle (ICR mice [5]; 10 μg i.c.v., with dimethyl sulfoxide i.v.): 2 fold | delayed antagonist effects (ICR mice [10]; 30 mg/kg injected 24 hr prior to 3 mg/kg Δ9-tetrahydrocannabinol, data not shown): did not have delayed antagonist effects | antagonism of in vivo effects of WIN 55,212-2 (ICR mice [10]; doses of up to 3 and 10 mg/kg i.v., vs 1 mg/kg WIN 55,212-2, data not shown): did not antagonize | antagonism of in vivo pharmacological effects of Δ9-tetrahydrocannabinol (ICR mice [10]; doses up to 30 mg/kg i.v., vs 3 mg/kg Δ9-tetrahydrocannabinol i.v.): did not antagonize | dextral shift of WIN 55,212-2 log concentration response curve ([11]; 1 nM O-2050): 2.8 (1.7 - 4.4) | dextral shift of WIN 55,212-2 log concentration response curve ([11]; 10 nM O-2050): 7.5 (4.1 - 13) | dextral shift of WIN 55,212-2 log concentration response curve ([11]; 31.62 nM O-2050): 15.0 (9.9 - 21.9) | dextral shift of WIN 55,212-2 log concentration response curve ([11]; 100 nM O-2050): 103.9 (60.0 - 180.7) | mean change in twitch height ([11]; 30 min after 1 nM): 6.03±6.21% | mean change in twitch height ([11]; 30 min after 10 nM): −0.45±5.9% | mean change in twitch height ([11]; 30 min after 31.62 nM): 3.39±9.4% | mean change in twitch height ([11]; 30 min after 100 nM): 3.8±8.1% | mean change in twitch height ([11]; 30 min after 1000 nM): 6.19±16.4% | Schild plot slope ([11]; interaction with WIN 55,212-2): 0.83±0.18 | Kb ([11]; read-out: mean KB value, antagonism of WIN 55,212-2): 1 ± 0.1 nM | better affinity for cannabinoid CB2 receptors than for CB1 [6]: 12 fold | Ki [6]: 0.2 ± 0.1 nM | locomotor activity (ICR mice [12]): significant locomotor stimulation

CCS(=O)(=O)NCCCCC(C)(C)c1cc(O)c2c(c1)OC(C)(C)C1CC=C(C)CC21 (centres unmarked) [O-2113]
ED50 SA (suppression of spontaneous activity) (ICR mice [2]): 0.4 (0.1-1.8) mg/kg | ED50 RT (rectal temperature) (ICR mice [3]): 1.4 (0.3-4.6) mg/kg | Ki (cannabinoid CB1 receptor [4]): 1.7 ± 0.3 nM | ED50 TF (tail flick antinociception) (ICR mice [5]): 0.3 (0.1-1) mg/kg | better affinity for cannabinoid CB2 receptors than for CB1 [6]: 21 fold | Ki [6]: 0.08 ± 0.02 nM
